Measured values from patent US20220125765A1, “PHARMACEUTICAL COMBINATIONS COMPRISING MEBENDAZOLE AND A STRONG OR MODERATE CYP1A2 INHIBITOR” (ZEPHAPHARM LTD, priority 2019, published 2022).
Where two headings read alike, the source gives them in different places.

Tests used:
CYP1A2 = target: T1, CYP1A2 (Homo sapiens, UniProt P05177); experiment: Cytochrome P450 reaction phenotyping, recombinant CYP1A2 (Bactosomes); conditions: for Compound Remaining (% of 0 min): CYP1A2, 5 μM
T1 sequence (P05177 1-516): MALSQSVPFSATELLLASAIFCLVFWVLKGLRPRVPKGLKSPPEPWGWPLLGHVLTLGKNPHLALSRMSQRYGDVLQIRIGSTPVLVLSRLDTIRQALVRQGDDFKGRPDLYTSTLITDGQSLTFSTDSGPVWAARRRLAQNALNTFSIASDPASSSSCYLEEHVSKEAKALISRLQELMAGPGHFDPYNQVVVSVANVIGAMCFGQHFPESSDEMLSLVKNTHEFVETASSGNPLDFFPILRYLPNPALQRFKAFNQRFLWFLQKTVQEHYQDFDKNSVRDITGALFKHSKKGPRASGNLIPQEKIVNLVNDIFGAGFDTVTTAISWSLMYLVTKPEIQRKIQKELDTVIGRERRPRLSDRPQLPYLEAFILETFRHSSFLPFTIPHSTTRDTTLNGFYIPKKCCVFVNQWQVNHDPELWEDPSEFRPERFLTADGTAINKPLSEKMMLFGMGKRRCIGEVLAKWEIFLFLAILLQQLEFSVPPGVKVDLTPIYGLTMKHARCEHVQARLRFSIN
Description: (§1) Incubations were also performed using control Bactosomes™ (no P450 enzymes present) to reveal any non-enzymatic degradation. Control compounds known to be metabolised specifically by each P450 isoform were included. All incubations were performed singularly for each test compound.
(§2) Incubations were also performed using control Bactosomes™ (no P450 enzymes present) to reveal any non-enzymatic degradation. Control compounds known to be metabolised specifically by each P450 isoform were included. All incubations were performed singularly for each test compound. […] The reactions were stopped by transferring an aliquot of incubate to quench solvent at the appropriate time points, in a 1:3 ratio. The termination plates were centrifuged at 3,000 rpm for 20 min at 4° C. to precipitate the protein.

CYP2C9 = CYP2C9 (Homo sapiens, UniProt P11712); experiment: Cytochrome P450 reaction phenotyping, recombinant CYP2C9 (Bactosomes)
CYP2C9, sequence (P11712 whole entry): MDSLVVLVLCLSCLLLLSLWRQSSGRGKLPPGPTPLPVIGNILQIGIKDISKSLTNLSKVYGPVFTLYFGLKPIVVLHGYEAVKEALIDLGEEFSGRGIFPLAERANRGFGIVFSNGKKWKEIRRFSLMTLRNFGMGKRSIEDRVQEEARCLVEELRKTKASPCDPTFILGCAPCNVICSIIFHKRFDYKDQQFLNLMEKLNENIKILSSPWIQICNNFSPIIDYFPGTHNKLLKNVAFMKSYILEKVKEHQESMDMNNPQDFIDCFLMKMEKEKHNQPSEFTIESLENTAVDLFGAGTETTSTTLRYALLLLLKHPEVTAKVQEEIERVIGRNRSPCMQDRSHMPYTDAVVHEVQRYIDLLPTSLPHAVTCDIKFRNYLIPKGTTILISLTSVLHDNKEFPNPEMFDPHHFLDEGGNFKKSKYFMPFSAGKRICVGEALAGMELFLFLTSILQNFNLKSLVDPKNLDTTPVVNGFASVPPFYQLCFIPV
Description: as §1, §2

CYP2C19 = CYP2C19 (Homo sapiens, UniProt P33261); experiment: Cytochrome P450 reaction phenotyping, recombinant CYP2C19 (Bactosomes); conditions: for Compound Remaining (% of 0 min): CYP2C19, 5 μM
CYP2C19, sequence (P33261 whole entry): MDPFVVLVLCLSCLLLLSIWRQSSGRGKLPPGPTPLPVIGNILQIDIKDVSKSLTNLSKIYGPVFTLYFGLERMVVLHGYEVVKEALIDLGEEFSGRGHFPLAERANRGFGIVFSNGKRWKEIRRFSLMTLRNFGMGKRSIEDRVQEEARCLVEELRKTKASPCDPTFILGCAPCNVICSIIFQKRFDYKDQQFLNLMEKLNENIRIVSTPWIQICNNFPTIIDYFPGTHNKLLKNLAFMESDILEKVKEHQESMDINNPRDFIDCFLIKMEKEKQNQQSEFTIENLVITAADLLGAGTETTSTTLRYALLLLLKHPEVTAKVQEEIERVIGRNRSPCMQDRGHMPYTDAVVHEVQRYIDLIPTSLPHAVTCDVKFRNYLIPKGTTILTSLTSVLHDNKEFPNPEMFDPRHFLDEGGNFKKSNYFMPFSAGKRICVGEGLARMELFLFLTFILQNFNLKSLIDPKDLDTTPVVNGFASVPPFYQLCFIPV
Description: as §1, §2

NBXF IMR-32 = experiment: 2D monolayer CellTiter-Blue viability, neuroblastoma IMR-32; format: cell-based; conditions: 72 h
Description: (§3) Seventeen compounds, including mebendazole (Batch no. […] Efficacy of compounds was assessed using CellTiter-Blue® Cell Viability Assay. Anti-tumor activity is expressed as absolute and relative IC50 and IC70 values, calculated by non-linear regression analysis.

SXFE RD-ES = experiment: 2D monolayer CellTiter-Blue viability, Ewing sarcoma RD-ES; format: cell-based; conditions: 72 h
Description: as §3

OVXF 1023L = experiment: 2D monolayer CellTiter-Blue viability, ovarian cancer OVXF 1023L; format: cell-based; conditions: for IC50: Homo sapiens, OVXF1023; for Test/Control (%) at Drug Concentration: 72 h
Description: Mebendazole was tested in vitro across a panel of 12 tumor cell lines of ovarian and renal cancer by using a 2D monolayer assay. […] OVXF 899L and RXF 486L are P-gp expressing, multidrug resistant cell lines.
Anti-tumor activity is expressed as absolute and relative IC50/70 values, calculated by 4-parameter non-linear curve fit.

BCRP = target: T2, BCRP (Homo sapiens, UniProt Q9UNQ0); experiment: in vitro
T2 sequence (Q9UNQ0 1-655): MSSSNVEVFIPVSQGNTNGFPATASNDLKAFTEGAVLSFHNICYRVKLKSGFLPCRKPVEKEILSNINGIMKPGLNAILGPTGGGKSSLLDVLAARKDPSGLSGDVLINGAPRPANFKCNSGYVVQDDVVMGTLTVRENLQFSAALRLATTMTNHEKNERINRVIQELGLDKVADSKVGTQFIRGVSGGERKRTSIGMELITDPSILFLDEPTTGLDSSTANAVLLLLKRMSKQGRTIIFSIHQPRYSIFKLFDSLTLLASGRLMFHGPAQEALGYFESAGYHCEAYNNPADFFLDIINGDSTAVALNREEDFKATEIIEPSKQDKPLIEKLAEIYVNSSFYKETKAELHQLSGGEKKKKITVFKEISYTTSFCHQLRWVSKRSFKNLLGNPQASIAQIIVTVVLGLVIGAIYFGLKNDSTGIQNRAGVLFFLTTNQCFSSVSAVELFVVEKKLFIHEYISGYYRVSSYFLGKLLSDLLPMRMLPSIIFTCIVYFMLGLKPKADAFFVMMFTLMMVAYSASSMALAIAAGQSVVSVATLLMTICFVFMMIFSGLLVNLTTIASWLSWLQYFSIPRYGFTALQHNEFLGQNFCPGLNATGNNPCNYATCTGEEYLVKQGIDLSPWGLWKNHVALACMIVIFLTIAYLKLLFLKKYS
Description: Bidirectional apparent permeability of test compound was quantified by LC-MS/MS and used to determine an efflux ratio.

- Compound Remaining (% of 0 min) (CYP1A2; 0 min): 100 % of 0 min
- Compound Remaining (% of 0 min) (CYP1A2; 5 min): 80.1 % of 0 min
- Compound Remaining (% of 0 min) (CYP1A2; 15 min): 45.8 % of 0 min
- Compound Remaining (% of 0 min) (CYP1A2; 30 min): 20.7 % of 0 min
- Compound Remaining (% of 0 min) (CYP1A2; 45 min): 9.88 % of 0 min
- half-life at 5 μM (CYP1A2; human, recombinant CYP1A2 (Bactosomes), pH 7.4): 0.222 h
- Compound Remaining (% of 0 min) (CYP2C9; CYP2C9, 5 μM, 0 min): 100 % of 0 min
- Compound Remaining (% of 0 min) (CYP2C9; CYP2C9, 5 μM, 5 min): 108 % of 0 min
- Compound Remaining (% of 0 min) (CYP2C9; CYP2C9, 5 μM, 15 min): 108 % of 0 min
- Compound Remaining (% of 0 min) (CYP2C9; CYP2C9, 5 μM, 30 min): 109 % of 0 min
- Compound Remaining (% of 0 min) (CYP2C9; CYP2C9, 5 μM, 45 min): 105 % of 0 min
- % compound remaining (CYP2C9; CYP2C9, 5 μM, time not stated): > 87.5%
- t1/2 (CYP2C9; CYP2C9, substrate 5 μM): >2.25 h
- half-life at 5 μM (CYP2C9; human, recombinant CYP2C9 (Bactosomes), pH 7.4): > 2.25 h
- Compound Remaining (% of 0 min) (CYP2C19; 0 min): 100 % of 0 min
- Compound Remaining (% of 0 min) (CYP2C19; 5 min): 92.6 % of 0 min
- Compound Remaining (% of 0 min) (CYP2C19; 15 min): 82.1 % of 0 min
- Compound Remaining (% of 0 min) (CYP2C19; 30 min): 76.3 % of 0 min
- Compound Remaining (% of 0 min) (CYP2C19; 45 min): 70.5 % of 0 min
- half-life at 5 μM (CYP2C19; human, recombinant CYP2C19 (Bactosomes), pH 7.4): 1.55 h
- IC50 (OVXF 1023L; OVXF 1023, 72 h, read-out: Abs. IC50): > 3.2 µM
- IC50 (OVXF 1023L; OVXF 1023, 72 h, read-out: Rel. IC50): > 3.2 µM
- efflux ratio at 120 min, 10 μM (BCRP; Caco-2): 1.23
- Papp A→B at 120 min, 10 μM (BCRP; Caco-2, Papp Mean): 23.5 ×10⁻⁶ cm/s
- Papp B→A at 120 min, 10 μM (BCRP; Caco-2, Papp Mean): 29 ×10⁻⁶ cm/s
- Papp A→B at 120 min, 10 μM (BCRP; Caco-2, Papp Rep 1): 19.7 ×10⁻⁶ cm/s
- Papp B→A at 120 min, 10 μM (BCRP; Caco-2, Papp Rep 1): 28.2 ×10⁻⁶ cm/s
- Papp A→B at 120 min, 10 μM (BCRP; Caco-2, Papp Rep 2): 27.4 ×10⁻⁶ cm/s
- Papp B→A at 120 min, 10 μM (BCRP; Caco-2, Papp Rep 2): 29.8 ×10⁻⁶ cm/s
- recovery at 120 min, 10 µM (BCRP; Caco-2, calculated mean % recovery values (range)): 52 to 75.7%
Compound: COC(=O)Nc1nc2ccc(C(=O)c3ccccc3)cc2[nH]1 [Mebendazole, methyl N-(6-benzoyl-1H-benzimidazol-2-yl)carbamate]
- Test/Control (%) at Drug Concentration (NBXF IMR-32; IMR-32, 1.0E+00 μM): 1%
- Test/Control (%) at Drug Concentration (NBXF IMR-32; IMR-32, 1.0E+01 μM): 0%
- Test/Control (%) at Drug Concentration (NBXF IMR-32; IMR-32, 1.0E+02 μM): −2%
- Test/Control (%) at Drug Concentration (NBXF IMR-32; IMR-32, 1.0E−01 μM): 81%
- Test/Control (%) at Drug Concentration (NBXF IMR-32; IMR-32, 1.0E−02 μM): 95%
- Test/Control (%) at Drug Concentration (NBXF IMR-32; IMR-32, 3.2E+00 μM): 1%
- Test/Control (%) at Drug Concentration (NBXF IMR-32; IMR-32, 3.2E+01 μM): −1%
- Test/Control (%) at Drug Concentration (NBXF IMR-32; IMR-32, 3.2E−01 μM): 10%
- Test/Control (%) at Drug Concentration (NBXF IMR-32; IMR-32, 3.2E−02 μM): 94%
- Test/Control (%) at Drug Concentration (NBXF IMR-32; IMR-32, 3.2E−03 μM): 97%
- Test/Control (%) at Drug Concentration (SXFE RD-ES; 1.0E+00 μM): 14%
- Test/Control (%) at Drug Concentration (SXFE RD-ES; 1.0E+01 μM): 6%
- Test/Control (%) at Drug Concentration (SXFE RD-ES; 1.0E+02 μM): 3%
- Test/Control (%) at Drug Concentration (SXFE RD-ES; 1.0E−01 μM): 78%
- Test/Control (%) at Drug Concentration (SXFE RD-ES; 1.0E−02 μM): 88%
- Test/Control (%) at Drug Concentration (SXFE RD-ES; 3.2E+00 μM): 7%
- Test/Control (%) at Drug Concentration (SXFE RD-ES; 3.2E+01 μM): 5%
- Test/Control (%) at Drug Concentration (SXFE RD-ES; 3.2E−01 μM): 29%
- Test/Control (%) at Drug Concentration (SXFE RD-ES; 3.2E−02 μM): 84%
- Test/Control (%) at Drug Concentration (SXFE RD-ES; 3.2E−03 μM): 93%
- Test/Control (%) at Drug Concentration (OVXF 1023L; OVXF 1023, 1.0E+00 μM): 69%
- Test/Control (%) at Drug Concentration (OVXF 1023L; OVXF 1023, 1.0E−01 μM): 94%
- Test/Control (%) at Drug Concentration (OVXF 1023L; OVXF 1023, 1.0E−02 μM): 101%
- Test/Control (%) at Drug Concentration (OVXF 1023L; OVXF 1023, 1.0E−03 μM): 104%
- Test/Control (%) at Drug Concentration (OVXF 1023L; OVXF 1023, 1.0E−04 μM): 107%
- Test/Control (%) at Drug Concentration (OVXF 1023L; OVXF 1023, 3.2E+00 μM): 62%
- Test/Control (%) at Drug Concentration (OVXF 1023L; OVXF 1023, 3.2E−01 μM): 82%
- Test/Control (%) at Drug Concentration (OVXF 1023L; OVXF 1023, 3.2E−02 μM): 98%
- Test/Control (%) at Drug Concentration (OVXF 1023L; OVXF 1023, 3.2E−03 μM): 101%
- Test/Control (%) at Drug Concentration (OVXF 1023L; OVXF 1023, 3.2E−04 μM): 103%
- Abs. IC70 (OVXF 1023L; OVXF 1023, 72 h): >3.200 µM
- Rel. IC70 (OVXF 1023L; OVXF 1023, 72 h): >3.200 µM
- Bot. (%) (OVXF 1023L; OVXF 1023, 72 h, curve fit): 2%
- Top (%) (OVXF 1023L; OVXF 1023, 72 h, curve fit): 105%
